The values below come from ChEMBL document CHEMBL4190295, “One-pot three steps cascade synthesis of novel isoandrographolide analogues and their cytotoxic activity” (Eur J Med Chem, 2017).

Bounds are passed on as bounds.

Holding throughout (format): functional, cell-based
Experiment [1] concerns KB. Briefly: Cytotoxicity against human KB cells assessed as reduction in cell viability by SRB assay. Background: The SRB assay estimates cell density from bound dye.
Experiment [2] has as its system HT-29. Kind of experiment: Cytotoxicity against human HT-29 cells assessed as reduction in cell viability by SRB assay.
Experiment [3] has as its system MCF7. Briefly: Cytotoxicity against human MCF7 cells assessed as reduction in cell viability by SRB assay.
The subject of experiment [4] is A549. Briefly: Cytotoxicity against human A549 cells assessed as reduction in cell viability by SRB assay.
A short description of experiment [5]: Cytotoxicity against rat ASK cells assessed as reduction in cell viability by SRB assay.
Experiment [6] concerns P388. Kind of experiment: Cytotoxicity against mouse P388 cells assessed as reduction in cell viability by SRB assay.

As for `CC(=O)OC[C@@]1(C)[C@H]2CC[C@]3(CNc4ccccc4)O[C@H](C4=CCOC4=O)C[C@H]3[C@]2(C)CC[C@H]1OC(C)=O`, the IC50 (in general, the concentration needed to halve the response being measured) in experiment [1] is greater than 50 µM; in experiment [2], 25.7 µM; in experiment [3] it was greater than 50 µM; in experiment [4], greater than 50 µM; in experiment [5] it was greater than 50 µM; in experiment [6] it was 40 µM.

`CC(=O)O[C@@H]1CC[C@]2(C)[C@H](CC[C@]3(CNc4cccc(F)c4)O[C@H](C4=CCOC4=O)C[C@H]32)[C@]1(C)CO[Si](C(C)C)(C(C)C)C(C)C`: the IC50 in experiment [1] worked out at 32.9 µM; in experiment [2] it was 30.1 µM; in experiment [3], 12.7 µM; in experiment [4] it was 24.5 µM; in experiment [5], 6.91 µM; in experiment [6] it was 7.95 µM.

As for `CC(=O)O[C@@H]1CC[C@]2(C)[C@H](CC[C@]3(CNc4ccc(Br)cc4)O[C@H](C4=CCOC4=O)C[C@H]32)[C@]1(C)COC(c1ccccc1)(c1ccccc1)c1ccccc1`, the IC50 in experiment [1], in experiment [2], in experiment [3], in experiment [4], in experiment [5] and in experiment [6] was greater than 50 µM in each case.

With `CC(=O)OC[C@@]1(C)[C@H]2CC[C@]3(CNc4ccccc4F)O[C@H](C4=CCOC4=O)C[C@H]3[C@]2(C)CC[C@H]1OC(C)=O`, the IC50 in experiment [1] was determined as 26.5 µM; in experiment [2], 6.5 µM; in experiment [3], 11.8 µM; in experiment [4], 8.45 µM; in experiment [5], 27.8 µM; in experiment [6], 7.5 µM.

For `CC(=O)O[C@@H]1CC[C@]2(C)[C@H](CC[C@]3(CNc4cccc(F)c4)O[C@H](C4=CCOC4=O)C[C@H]32)[C@]1(C)CO[Si](C)(C)C(C)(C)C`, the IC50 came to 27.4 µM in experiment [1]; 26.2 µM in experiment [2]; 8.64 µM in experiment [3]; 21.5 µM in experiment [4]; 6.1 µM in experiment [5]; 6.44 µM in experiment [6].

With `CC(=O)O[C@@H]1CC[C@]2(C)[C@H](CC[C@]3(CNc4cccc(F)c4)O[C@H](C4=CCOC4=O)C[C@H]32)[C@]1(C)CO[Si](c1ccccc1)(c1ccccc1)C(C)(C)C`, the IC50 in experiment [1] is greater than 50 µM; in experiment [2] it was greater than 50 µM; in experiment [3], greater than 50 µM; in experiment [4], greater than 50 µM; in experiment [5] it was 44.8 µM; in experiment [6], greater than 50 µM.

`CC(=O)O[C@@H]1CC[C@]2(C)[C@H](CC[C@]3(CNc4cccc(F)c4)O[C@H](C4=CCOC4=O)C[C@H]32)[C@]1(C)COC(c1ccccc1)(c1ccccc1)c1ccccc1`: the IC50 in experiment [1], in experiment [2], in experiment [3], in experiment [4], in experiment [5] and in experiment [6] was greater than 50 µM throughout.

On to `COc1ccc(NC[C@]23CC[C@@H]4[C@](C)(CO[Si](C)(C)C(C)(C)C)[C@H](OC(C)=O)CC[C@@]4(C)[C@@H]2C[C@@H](C2=CCOC2=O)O3)cc1OC`, for which the IC50 in experiment [1] came out at 11.5 µM; in experiment [2], 6.16 µM; in experiment [3] it was 5.4 µM; in experiment [4], 5.3 µM; in experiment [5], 5.13 µM; in experiment [6], 5.49 µM.

Turning to `COc1ccc(NC[C@]23CC[C@@H]4[C@](C)(COC(c5ccccc5)(c5ccccc5)c5ccccc5)[C@H](OC(C)=O)CC[C@@]4(C)[C@@H]2C[C@@H](C2=CCOC2=O)O3)cc1OC`, the IC50 in experiment [1] is greater than 50 µM; in experiment [2] it was greater than 50 µM; in experiment [3] it was 23.1 µM; in experiment [4], greater than 50 µM; in experiment [5], 6.51 µM; in experiment [6], 30.5 µM.

With `CC(=O)O[C@@H]1CC[C@]2(C)[C@H](CC[C@]3(CNc4ccc(Br)cc4)O[C@H](C4=CCOC4=O)C[C@H]32)[C@]1(C)CO[Si](c1ccccc1)(c1ccccc1)C(C)(C)C`, the IC50 is greater than 50 µM in experiment [1]; greater than 50 µM in experiment [2]; greater than 50 µM in experiment [3]; 47.8 µM in experiment [4]; greater than 50 µM in experiment [5]; 48.3 µM in experiment [6].

In the case of `CC(=O)O[C@@H]1CC[C@]2(C)[C@H](CC[C@]3(CNc4ccc(Br)cc4)O[C@H](C4=CCOC4=O)C[C@H]32)[C@]1(C)CO[Si](C(C)C)(C(C)C)C(C)C`, the IC50 in experiment [1] was greater than 50 µM; in experiment [2], greater than 50 µM; in experiment [3], greater than 50 µM; in experiment [4] it was greater than 50 µM; in experiment [5], 29.7 µM; in experiment [6] it was 40.5 µM.

As to `CC(=O)O[C@@H]1CC[C@]2(C)[C@H](CC[C@]3(CNc4ccccc4F)O[C@H](C4=CCOC4=O)C[C@H]32)[C@]1(C)CO[Si](c1ccccc1)(c1ccccc1)C(C)(C)C`, the IC50 in experiment [1] was greater than 50 µM; in experiment [2], greater than 50 µM; in experiment [3] it was greater than 50 µM; in experiment [4], greater than 50 µM; in experiment [5], 39.7 µM; in experiment [6], greater than 50 µM.

Take `CC(=O)O[C@@H]1CC[C@]2(C)[C@H](CC[C@]3(CNc4ccccc4)O[C@H](C4=CCOC4=O)C[C@H]32)[C@]1(C)CO[Si](C)(C)C(C)(C)C`: the IC50 stood at 21.2 µM in experiment [1]; 8.5 µM in experiment [2]; 5.44 µM in experiment [3]; 7.8 µM in experiment [4]; 5.94 µM in experiment [5]; 5.19 µM in experiment [6].

As to `CC(=O)O[C@@H]1CC[C@]2(C)[C@H](CC[C@]3(CNc4ccccc4)O[C@H](C4=CCOC4=O)C[C@H]32)[C@]1(C)CO[Si](c1ccccc1)(c1ccccc1)C(C)(C)C`, the IC50 in experiment [1] is greater than 50 µM; in experiment [2] it was greater than 50 µM; in experiment [3], greater than 50 µM; in experiment [4], greater than 50 µM; in experiment [5] it was 9.32 µM; in experiment [6] it was 45.3 µM.

For `CC(=O)OC[C@@]1(C)[C@H]2CC[C@]3(CNc4cccc(F)c4)O[C@H](C4=CCOC4=O)C[C@H]3[C@]2(C)CC[C@H]1OC(C)=O`, the IC50 was determined as 20.8 µM in experiment [1]; 5.87 µM in experiment [2]; 7.41 µM in experiment [3]; 6.52 µM in experiment [4]; 22.3 µM in experiment [5]; 6.85 µM in experiment [6].

Turning to `C=C1CC[C@@H]2[C@](C)(CO)[C@H](O)CC[C@@]2(C)[C@@H]1C/C=C1/C(=O)OC[C@H]1O` [ANDROGRAPHOLIDE], the IC50 worked out at 27.4 µM in experiment [1]; 9.34 µM in experiment [2]; 15.4 µM in experiment [3]; 27.9 µM in experiment [4]; 16.2 µM in experiment [5]; 2.25 µM in experiment [6].

As to `CC(=O)O[C@@H]1CC[C@]2(C)[C@H](CC[C@]3(CNc4ccccc4F)O[C@H](C4=CCOC4=O)C[C@H]32)[C@]1(C)CO[Si](C(C)C)(C(C)C)C(C)C`, the IC50 in experiment [1] turned out to be 30.8 µM; in experiment [2], 30.2 µM; in experiment [3] it was 15.3 µM; in experiment [4], 21 µM; in experiment [5], 8.05 µM; in experiment [6] it was 21.4 µM.

With `CC(=O)OC[C@@]1(C)[C@H]2CC[C@]3(CNc4ccc(Br)cc4)O[C@H](C4=CCOC4=O)C[C@H]3[C@]2(C)CC[C@H]1OC(C)=O`, the IC50 was found to be 21.1 µM in experiment [1]; 6.09 µM in experiment [2]; 6.93 µM in experiment [3]; 6.14 µM in experiment [4]; 8.4 µM in experiment [5]; 7.47 µM in experiment [6].

Turning to `CC(=O)O[C@@H]1CC[C@]2(C)[C@H](CC[C@]3(CNc4ccccc4F)O[C@H](C4=CCOC4=O)C[C@H]32)[C@]1(C)COC(c1ccccc1)(c1ccccc1)c1ccccc1`, the IC50 in experiment [1], in experiment [2], in experiment [3], in experiment [4], in experiment [5] and in experiment [6] was greater than 50 µM in each case.

In the case of `CC(=O)O[C@@H]1CC[C@]2(C)[C@H](CC[C@]3(CNc4ccc(Br)cc4)O[C@H](C4=CCOC4=O)C[C@H]32)[C@]1(C)CO[Si](C)(C)C(C)(C)C`, the IC50 was 25.7 µM in experiment [1]; 27.7 µM in experiment [2]; 12.9 µM in experiment [3]; 15 µM in experiment [4]; 7.35 µM in experiment [5]; 6.39 µM in experiment [6].

With `CC(=O)O[C@@H]1CC[C@]2(C)[C@H](CC[C@]3(CNc4ccccc4)O[C@H](C4=CCOC4=O)C[C@H]32)[C@]1(C)COC(c1ccccc1)(c1ccccc1)c1ccccc1`, the IC50 in experiment [1] is greater than 50 µM; in experiment [2], greater than 50 µM; in experiment [3], greater than 50 µM; in experiment [4], greater than 50 µM; in experiment [5], 29.1 µM; in experiment [6], greater than 50 µM.

As for `COc1ccc(NC[C@]23CC[C@@H]4[C@](C)(CO[Si](c5ccccc5)(c5ccccc5)C(C)(C)C)[C@H](OC(C)=O)CC[C@@]4(C)[C@@H]2C[C@@H](C2=CCOC2=O)O3)cc1OC`, the IC50 was greater than 50 µM in experiment [1]; greater than 50 µM in experiment [2]; 35.8 µM in experiment [3]; 48.6 µM in experiment [4]; 9.37 µM in experiment [5]; 27.5 µM in experiment [6].

As for `Cc1c2ccncc2c(C)c2c1[nH]c1ccccc12` [ELLIPTECINE], the IC50 in experiment [1] came to 1.87 µM; in experiment [2] it was 2.06 µM; in experiment [3], 1.53 µM; in experiment [4], 1.2 µM; in experiment [5], 2.17 µM; in experiment [6] it was 1.34 µM.

Turning to `CC(=O)O[C@@H]1CC[C@]2(C)[C@H](CC[C@]3(CNc4ccccc4)O[C@H](C4=CCOC4=O)C[C@H]32)[C@]1(C)CO[Si](C(C)C)(C(C)C)C(C)C`, the concentration for half-maximal inhibition (IC50) came to 18.8 µM in experiment [1]; 17.5 µM in experiment [2]; 8.33 µM in experiment [3]; 9.43 µM in experiment [4]; 6.1 µM in experiment [5]; 6.54 µM in experiment [6].

As to `COc1ccc(NC[C@]23CC[C@@H]4[C@](C)(CO[Si](C(C)C)(C(C)C)C(C)C)[C@H](OC(C)=O)CC[C@@]4(C)[C@@H]2C[C@@H](C2=CCOC2=O)O3)cc1OC`, the IC50 in experiment [1] was 17.9 µM; in experiment [2], 5.24 µM; in experiment [3], 4.7 µM; in experiment [4], 6.08 µM; in experiment [5] it was 4.61 µM; in experiment [6], 4.98 µM.
